In one assay the test system is Thrombozyten. The assay is described as follows: Inhibition of collagen-induced platelet aggregation in platelet-rich plasma (turbidimetric, Born). The class given is cell-based. As to conditions: Homo sapiens, Konzentration 3 x 10^-5 g/ml, PRP, 37°C, read-out: Hemmung (%) (x̄ ± SEM). As to the method:
Thrombocytenaggregationshemmung
Für die Bestimmung der thrombocytenaggregationshemmenden Wirkung wird Blut von gesunden Spendern, die mindestens 14 Tage lang kein Medikament eingenommen hatten, verwendet. Das Blut wird in 3.8 %iger Natriumcitratlösung aufgenommen. Plättchenreiches Plasma (PRP) wird durch 20 min. lange Zentrifugation bei 150 G bei Raumtemperatur gewonnen (Jürgens/Beller: Klinische Methoden der Blutgerinnungsanalyse; Thieme-Verlag, Stuttgart 1959). Die Plättchenaggregation wird nach der turbidometrischen Methode (Born, G. V. R.: J. Physiol. 162 67, 1962) im Aggregometer bei 37°C bestimmt. Hierzu wird PRP mit Prüfsubstanz bei 37°C inkubiert und anschließend die Aggregation durch Zugabe einer Kollagensuspension ausgelöst. Die prozentuale Hemmung errechnet sich aus den entsprechenden Ausschlägen.
An den in der folgenden Tabelle 2 genannten Verbindungen wurde die Hemmung der Kollagen-induzierten Thrombozytenaggregation untersucht.

Assay [1] concerns TXA2. As to the kind of experiment: Inhibition of thromboxane-induced isometric contraction of rabbit aortic strips (TXA2 generated from washed human platelets). The class given is cell-based, Kaninchen. Particulars: Oryctolagus cuniculus, Platelet, thromboxane-induced vessel contraction, read-out: Hemmung (%) (x̄ ± SEM); for inhibition at 30 µg/mL: Konzentration 3 x 10^-5 g/ml. How it is done:
Gefäßkonstriktorische Wirkung
Die gefäßkonstriktorische Wirkung von Thromboxan wird mit Hilfe der isometrischen Kontraktion von Kaninchenaortenstreifen gemessen (Furchtgott, R. F; Bhadrakom, S. J., Pharmacol. Exp. Ther. 108, 129 - 143, 1953). Männliche Kaninchen (Russen, Gewicht 1,8 - 2 kg) werden mit Pento- -barbital getötet. Die Brustaorta wird entnommen und spiral--förmig aufgeschnitten. Die Streifen (Breite 2 - 3 mm, Länge 3 cm) werden unter einer Spannung von 2 g in 10 ml - Organbädern, die Carbogen durchperlten Krebs-Henseleit-Puffer von 37°C enthalten, suspendiert. Zur Erhöhung der Spezifität der Methode enthält der Puffer folgende Inhibitoren (jeweils 100 µg/l): Propanololhydrochlorid, Phentolamin, Cyproheptadin, Atropin, Mebhydrolin und Indometacin. Die Kontraktionen werden nach Erreichen eines konstanten Basaltonus durch TXA2, generiert aus gewaschenen Human-Thrombozyten, ausgelöst.
Zur Präparation der Thrombozytensuspension wird Humanblut in 1 %iger EDTA-Lösung aufgenommen und bei 150 G 20 Minuten lang zentrifugiert. Das plättchenreiche Plasma wird abgehebert und bei 750 G für 20 Minuten zentrifugiert. Das plättchenarme Plasma wird abdekantiert und die verbleibenden Plättchen in Puffer (0,15 M NaCl, 0,15 M Tris/ HC1 pH 7.4, 77 mM EDTA; 90 : 8 : 2) aufgenommen.
Die Thromboxan-Generation erfolgt durch Stimulation der Plättchen mit Thrombin bei 37°C unter Rühren. Nach 30 sec wird die Plättchensuspension zu dem mit Prüfsubstanz bzw. Lösungsmittel vorbehandelten Aortenstreifen gegeben und damit die Kontraktionen ausgelöst. Die prozentuale Hemmung errechnet sich aus den entsprechenden Ausschlägen.
An den in der folgenden Tabelle 1 genannten Verbindungen wurde die spezifische Hemmung der durch Thromboxan induzierten Gefäßkontraktionen bestimmt.

For assay [2], the system named is TXA2. Particulars: literature: Tanaka, Harada, Katori, Prostaglandins 17, 235, 1979; cited from earlier work.

Each structure is given as a SMILES string.

As for `O=C(O)CCCSc1nc2ccccc2s1` [Beispiel 9], the inhibition at 30 µg/mL in the assay on Thrombozyten amounted to 52%; with TXA2 [1] it was 84 ± 3%. In addition, the inhibition at 100 µg/mL in the assay with TXA2 [1] (Konzentration 1 x 10^-4 g/ml) amounted to 100%. Also, the inhibition at 10 µg/mL with TXA2 [1] (Konzentration 1 x 10^-5 g/ml) came to 58 ± 7%. The inhibition at 1 µg/mL in the assay with TXA2 [1] (Konzentration 1 x 10^-6 g/ml) amounted to 16 ± 7%. Further, in the assay with TXA2 [1] (Konzentration 3 x 10^-6 g/ml), the inhibition at 3 µg/mL is 34 ± 6%.
As to `O=C(O)CCCSc1nc2cc(F)c(F)cc2s1` [Beispiel 11a], the inhibition at 30 µg/mL in the assay on TXA2 [1] worked out at 82 ± 1%.
For `O=C(O)CCCSc1nc(Cl)c(Cl)s1` [Beispiel 21], the inhibition at 30 µg/mL came out at 69% in the assay with Thrombozyten and 59 ± 6% with TXA2 [1].
In the case of `O=C(O)CCCCSc1nc(Cl)c(Cl)s1` [Beispiel 23], in the assay with TXA2 [1], the inhibition at 30 µg/mL turned out to be 47 ± 10%.
Consider `O=C(O)CCCCSc1nc2ccccc2s1` [Beispiel 25], for which the inhibition at 30 µg/mL in the assay with TXA2 [1] stood at 31 ± 18%.
Regarding `CCOC(=O)c1c(C)cc2c(CO)n[nH]c(=O)c2c1C` [Phthalazinol], in the assay with TXA2 [2], the “Wirkung als spezifischer TXA2-Antagonist” value was “nicht als spezifischer TXA2-Antagonist”.

These data come from patent EP0137426A2, “2-Mercaptothiazole derivatives, process for their preparation and utilization of 2-mercaptothiazole derivatives in pharmaceutical compounds” (BAYER AG, priority 1983, dated 1985).
